# In patent publication US20130123358A1, “Metabolic Benefits to Butyrate as a Chronic Diet Supplement” (priority 2009, published 2013):
# Key:
# [1] = tested on: C57BL/6J mice on high fat diet; assay: Systemic insulin sensitivity (fasting glucose, insulin, ITT, HOMA-IR) in HFD mice; format: in vivo, mouse; settings: butyrate 5% w/w in HFD
# Protocol: ITT was conducted by intra-peritoneal (i.p.) injection of insulin (I9278, Sigma) at 0.75 U/kg body weight in mice after a 4 hour fast as previously described (15). Blood glucose was monitored in the tail vein blood using the FreeStyle blood glucose monitoring system (TheraSense, Phoenix, Ariz.).
# To test this possibility, systemic insulin sensitivity was analyzed using fasting glucose, insulin, and insulin tolerance.
# Tail vein blood was used for the glucose assay after 16 hr fasting during the period of HFD feeding. […] The insulin was determined at 16 weeks on HFD in fasting condition with Lincoplex kit (#MADPK-71k-03, Linco Research Inc., St. Charles, Mo.). […] ITT was done at 12 weeks on HFD (at 16 weeks of age). In FIGS. 2A-2C, data are presented as means±SE (N=9). *P<0.05, **P<0.001 by Student's t test. […] After an overnight fast, blood glucose and insulin were measured and used to determine insulin sensitivity through HOMA IR (IR=fasting insulin […] X fasting glucose mg/dL÷405). Values are the means±SE (N=8 mice). ** P<0.001. […] The gastrocnemius muscle was isolated after insulin (0.75 U/kg) injection in mice for 30 min and used to prepare the whole cell lysate for an immunoblot. The mice on HFD for 13 weeks were used in the signaling assay. FIG. 2F illustrates the degree of the blot signal in the panel 2E, by quantifying the signal and normalizing with protein loading. **P<0.001 (n=2).
# [2] = tested on: IRS-1 and Akt phosphorylation; assay: Insulin signaling immunoblot in gastrocnemius muscle after insulin injection; format: in vivo, mouse; settings: butyrate 5% w/w in HFD 13 weeks, 30 min after insulin 0.75 U/kg
# Excerpt: Fresh fat and muscles were collected and frozen in liquid nitrogen. The whole cell lysate protein was extract in lysis buffer with sonication and analyzed in western blot as described elsewhere (16). Antibodies were used in study of myoglobin (sc-25607, Santa Cruz), PGC-1 (sc-13068, Santa Cruz), Tubulin (ab7291, Abcam), myosin (M8421, Sigma), pAMPK (Thr 172, #2531, Cell signaling) and p-p38 (sc-7975, Santa Cruz). To detect multiple signals from one membrane, the membrane was stripped with a stripping buffer. Intensity of the immunoblot signal was quantified using a computer program, ImageJ 1.37v (NIH). The mean values of results from three experiments (6 mice each group) were presented. The antibodies to PGC-1α and UCP-1 were from Dr. Thomas Gettys at Pennington Biomedical Research Center, Baton Rouge, La.
# Tail vein blood was used for the glucose assay after 16 hr fasting during the period of HFD feeding. […] The insulin was determined at 16 weeks on HFD in fasting condition with Lincoplex kit (#MADPK-71k-03, Linco Research Inc., St. Charles, Mo.). […] After an overnight fast, blood glucose and insulin were measured and used to determine insulin sensitivity through HOMA IR (IR=fasting insulin […] X fasting glucose mg/dL÷405). […] FIG. 2F illustrates the degree of the blot signal in the panel 2E, by quantifying the signal and normalizing with protein loading. **P<0.001 (n=2).
# [3] = tested on: C57BL/6J mice on high fat diet; assay: Hyperinsulinemic-euglycemic clamp; format: in vivo, mouse; settings: 5% butyrate in HFD 4 weeks
# Protocol: Hyperinsulinemic-euglycemic clamps were performed at the Penn State Mouse Metabolic Phenotyping Center. The clamps were conducted in C57BL/6 mice at 12 weeks of age after 4 weeks on HFD with or without butyrate supplement. Following overnight fast (˜15 hour), a 2-hour hyperinsulinemic-euglycemic clamp was conducted in awake mice with a primed (150 mU/kg body weight) and continuous infusion of human regular insulin (Humulin; Eli Lilly, Indianapolis, Ind.) at a rate of 2.5 mU/kg/min to raise plasma insulin within a physiological range (Kim et al., 2004). Blood samples (20 μl) were collected at 20 min intervals for the immediate measurement of plasma glucose concentration, and 20% glucose was infused at variable rates to maintain glucose at basal concentrations. Basal and insulin-stimulated whole body glucose turnover were estimated with a continuous infusion of [3-^3H]glucose (PerkinElmer, Boston, Mass.) for 2 hours prior to the clamps (0.05 μCi/min) and throughout the clamps (0.1 μCi/min), respectively. To estimate insulin-stimulated glucose uptake in individual tissues, 2-deoxy-D-[1-^14C]glucose (2-[^14C]DG) was administered as a bolus (10 μCi) at 75 min after the start of clamps. Blood samples were taken before, during, and at the end of clamps for the measurement of plasma [^3H]glucose, ^3H2O, 2-[^14C]DG concentrations, and/or insulin concentrations. At the end of the clamps, mice were euthanized, and tissues were taken for biochemical and molecular analysis.
# Glucose concentrations during clamps were analyzed using […] plasma by a glucose oxidase method on a Beckman Glucose Analyzer 2 (Beckman, Fullerton, Calif.). Plasma insulin concentrations were measured by ELISA using kits from Alpco Diagnostics (Salem, N.H.). Plasma concentrations of [3-^3H]glucose, 2-[^14C]DG, and ^3H2O were determined following deproteinization of plasma samples as previously described. The radioactivity of ^3H in tissue glycogen was determined by digesting tissue samples in KOH and precipitating glycogen with ethanol. For the determination of tissue 2-[^14C]DG-6-P content, tissue samples were homogenized, and the supernatants were subjected to an ion-exchange column to separate 2-[^14C]DG-6-P from 2-[^14C]DG. Rates of basal hepatic glucose production (HGP) and insulin-stimulated whole body glucose turnover were determined as the ratio of the [^3H]glucose infusion rate to the specific activity of plasma glucose at the end of the basal period and during the final 30 min of clamp, respectively (Kim et al., 2004). Insulin-stimulated rate of HGP during clamp was determined by subtracting the glucose infusion rate from whole body glucose turnover. Insulin-stimulated glucose uptake in individual tissues was assessed by determining the tissue content of 2-[^14C]DG-6-P and plasma 2-[^14C]DG profile.
# Hyperinsulinemic-euglycemic clamps were performed at the Penn State Mouse Metabolic Phenotyping Center. The clamps were conducted in C57BL/6J mice at 12 weeks of age after 4 weeks on HFD with or without a 5% butyrate supplement. Following overnight fast (˜15 hour), a 2-hour hyperinsulinemic-euglycemic clamp was conducted in awake mice with a primed (150 mU/kg body weight) and continuous infusion of human regular insulin (Humulin; Eli Lilly, Indianapolis, Ind.) at a rate of 2.5 mU/kg/min to raise plasma insulin within a physiological range (38). […]
# islet cells = settings: isolated rat islet cells; cited from earlier work
# liver cells = settings: isolated rat liver; cited from earlier work
smiles,measurement,setting,value
CCCC(=O)[O-].[Na+] [sodium butyrate],insulin tolerance test (ITT) response,"[1]; 12 weeks, insulin 0.75 U/kg i.p., 30, 60, 120 and 180 min",much better response to insulin at all time points
same,"fasting insulin, lower than control",[1]; 16 weeks on HFD,50%
same,fasting glucose (HFD-induced increase),"[1]; after 10 weeks, 16 hr fasting",this increase was not observed
same,"HOMA-IR, lower than control",[1]; overnight fast,60%
same,threonine 308 phosphorylation of Akt,[2],increased
same,tyrosine 632 (Y632) phosphorylation of IRS-1,[2],increased
same,insulin sensitivity in the liver (hepatic glucose production),[3]; clamp,also improved
same,insulin-stimulated glucose uptake in brown adipose tissue,[3]; clamp,improved
same,insulin-stimulated glucose uptake in white adipose tissue,[3]; clamp,improved
same,insulin-stimulated glucose uptake in muscle,"[3]; clamp, gastrocnemius",improved
same,"glucose infusion rate, increase",[3]; last 40 min of clamps,40%
same,cell viability (islet cells),islet cells,decrease
same,insulin release in the presence of glucose (islet cells),islet cells,decrease
same,energy metabolism (liver cells),liver cells,impairment
